Laboratory results published in US20110244060A1, “CARDIOPROTECTIVE EFFECTS OF NUTRACEUTICALS ISOLATED FROM NIGELLA SATIVA SEEDS” (UNIVERSITI PUTRA MALAYSIA, priority 2008, published 2011).
Marks after values point to notes of the source that are not given here.

What was measured:
[1] = test system: Apo B100 mRNA; test: Apo B100 mRNA expression in rat liver, real-time PCR; settings: rat liver (in vivo), compared to the control
[2] = test system: LDLR mRNA; test: LDLR mRNA expression in HepG2 cells, quantitative real-time PCR; assay type: cell-based, human; settings: TQ 2 μg/ml, compared to control cells
[3] = test system: HMG-COAR mRNA; test: HMG-COAR mRNA expression in HepG2 cells, real-time PCR; assay type: cell-based, human; settings: HepG2 cells (in vitro), compared to the control
Experimental: (§1) For the determination of mRNA expression levels of LDLR, HMG-COAR, beta actin, Apo A-1, Apo E and Apo B100 by real time PCR, HepG2 cells were plated in 6-well plates at a density of 1.8×10^5 cells/well for 24 h. The cells were incubated with 10% HLPDS for 24 h with or without adding 2 μg/ml 25OH for another 24 h. The cells were treated with TQRF at two different doses, 80 and 50 μg/ml for 24 h, and with TQ at dose of 2 μg/ml Total RNA was isolated from HepG2 cells and rats liver tissues using RiboPure RNA Isolation Kit according to the manufacturer's instructions. […] Real-time quantitative PCR was performed using the Quantict Probe Real time PCR master mix according to the manufacturer's instructions. TaqMan Primers and probes specific for LDLR and HMG-COA genes were designed using the sequence entries from GenBank (Table. 1) Database and synthesis by Integrated DNA Technologies (IDT). Human beta-actin mRNA was used as housekeeping gene, TaqMan Primers and probes specific for human beta-actin gene was synthesis by Sigma Aldrich. The probes were labeled with FAM 3′ end and the fluorophores 6FAM at 5′ end. The real-time quantitative PCR reaction for each sample was carried out in triplicate and each experiment was repeated twice. […] Analysis of gene expression data was carried out by ΔΔCT method of relative quantification, according to Kenneth, et al, (2001) (32). […]

[4] = test system: Apo B100 mRNA; test: Apo B100 mRNA expression in HepG2 cells, real-time PCR; assay type: cell-based, human; settings: HepG2 cells (in vitro), compared to the control
Experimental: as §1

[5] = test system: LDLR mRNA; test: LDLR mRNA expression in liver of experimental rats, quantitative real-time PCR; assay type: in vivo; settings: rat liver, compared with untreated rats
[6] = test system: Apo A-1 mRNA; test: Apo A-1 mRNA expression in rat liver, real-time PCR; settings: rat liver (in vivo), compared to the control
[7] = Toxicity parameters (ALT, GGT, urea, creatinine) of plasma from experimental rats; settings: rat, in vivo
Experimental: In the present invention, the in vivo (rabbit study) antioxidant activity of NSP and NSO were measured using Selectra E manufacture Vital scientific machine (UK) and with commercial kits (Randox, Crumlin, Co. Antrim, UK). The present invention provides a method of the antioxidant activity of TQRF and TQ on .OH scavenging activity using ESR in experimental rats. The present invention provided clear understanding of the molecular mechanism by which TQRF and TQ exert their lowering cholesterol property. The regulatory effect of TQRF and TQ on genes involved in cholesterol metabolism such as LDLR, HMG-COAR, Apo A-1, Apo B100 and Apo E were investigated in vitro using HepG2 cells and in vivo using Sprague-Dawley rats. The present invention also provides evidence on the safety of selective doses of TQRF, TQ, NSO and NSP by measuring the toxicity parameters including Alanine aminotransferase (ALT), Gamma-glutamyltranspeptidase (GGT), urea and creatinine of plasma collected from experimental rats and rabbits.
Toxicity parameter including, ALT of plasma samples collected from experimental rats at baseline, middle of the treatment and the end f the treatment s were measured using analytical kit by kinetic UV assay using Roche Selectra E machine.

[8] = test system: HMG-COAR mRNA; test: HMG-COAR mRNA expression in rat liver, real-time PCR; settings: rat liver (in vivo), compared to the control
Experimental: At the end of the experiment, all the rats were dissected and liver tissues for RNA isolation were removed, snap frozen with liquid nitrogen within approximately 2 min of death, and stored at −80° C. for gene expression study. Total RNA was isolated from HepG2 cells and rats liver tissues using RiboPure RNA Isolation Kit according to the manufacturer's instructions. […] Real-time quantitative PCR was performed using the Quantict Probe Real time PCR master mix according to the manufacturer's instructions. TaqMan Primers and probes specific for LDLR and HMG-COA genes were designed using the sequence entries from GenBank (Table. 1) Database and synthesis by Integrated DNA Technologies (IDT). Human beta-actin mRNA was used as housekeeping gene, TaqMan Primers and probes specific for human beta-actin gene was synthesis by Sigma Aldrich. The probes were labeled with FAM 3′ end and the fluorophores 6FAM at 5′ end. The real-time quantitative PCR reaction for each sample was carried out in triplicate and each experiment was repeated twice. […] Analysis of gene expression data was carried out by ΔΔCT method of relative quantification, according to Kenneth, et al, (2001) (32). […]

[9] = test system: Apo E mRNA; test: Apo E mRNA expression in HepG2 cells, real-time PCR; assay type: cell-based, human; settings: HepG2 cells (in vitro), compared to the control
Experimental: as §1

[10] = test system: hydroxyl radical; test: Hydroxyl radical scavenging activity of rat plasma by ESR; assay type: in vivo; settings: plasma of rats after 8 weeks of treatment, different doses
[11] = test system: Apo A-1 mRNA; test: Apo A-1 mRNA expression in HepG2 cells, real-time PCR; assay type: cell-based, human; settings: HepG2 cells (in vitro), compared to the control
Experimental: as §1

[12] = test system: Apo E mRNA; test: Apo E mRNA expression in rat liver, real-time PCR; settings: rat liver (in vivo), compared to the control
[13] = test system: Sprague-Dawley rats fed with diets supplemented with 1% cholesterol; test: Hypocholesterolemic effect of TQRF and TQ in rats fed 1% cholesterol diet (plasma TC, LDLC); assay type: in vivo, rat; settings: for TC levels in experimental rats: 1% cholesterol diet

CC1=CC(=O)C(C(C)C)=CC1=O [TQ, Thymoquinone]
Apo B100 mRNA expression [1]: down-regulated | increase of LDLR mRNA expression level [2]: two | HMG-COAR mRNA expression [3]: down-regulated | Apo B100 mRNA expression [4]: down-regulated | increase of LDLR mRNA level ([5]; TQ 20 mg/kg body weight): two | increase of LDLR mRNA level ([5]; TQ 100 mg/kg body weight): seven | Apo A-I mRNA expression [6]: up-regulated | toxicity (hepatic and kidney enzyme stability, organ integrity) [7]: non toxic | HMG-COAR mRNA expression [8]: down-regulated | Apo E mRNA expression [9]: up-regulated | hydroxyl radical scavenging activity of plasma (ESR) [10]: able to directly scavenge .OH | Apo A-I mRNA expression [11]: up-regulated | Apo E mRNA expression [12]: up-regulated | TC levels in experimental rats ([13]; TQ 1 group (20 mg/kg oral emulsion), after 4 weeks): 1.49 ± 0.24 ^b mmol/l | TC levels in experimental rats ([13]; TQ 1 group (20 mg/kg oral emulsion), after 8 weeks): 1.48 ± 0.22 ^a, c mmol/l | TC levels in experimental rats ([13]; TQ 1 group (20 mg/kg oral emulsion), baseline): 0.85 ± 0.19 mmol/L | TC levels in experimental rats ([13]; TQ 2 group (50 mg/kg oral emulsion), after 4 weeks): 1.47 ± 0.31 ^b mmol/l | TC levels in experimental rats ([13]; TQ 2 group (50 mg/kg oral emulsion), after 8 weeks): 1.01 ± 0.34 ^a mmol/l | TC levels in experimental rats ([13]; TQ 2 group (50 mg/kg oral emulsion), baseline): 0.97 ± 0.05 mmol/L | TC levels in experimental rats ([13]; TQ 3 group (dose 20 mg/kg, oral emulsion), after 4 weeks): 1.41 ± 0.48 ^b mmol/l | TC levels in experimental rats ([13]; TQ 3 group (dose 20 mg/kg, oral emulsion), after 8 weeks): 0.94 ± 0.30 ^a mmol/l | TC levels in experimental rats ([13]; TQ 3 group (dose 20 mg/kg, oral emulsion), baseline): 0.87 ± 0.26 mmol/L | plasma low density lipoprotein cholesterol (LDLC) ([13]; rats, different doses for 8 weeks, compared to controlled group): significant decrease
